Data on 14 molecules can be found in ChEMBL document CHEMBL1201862, “PubChem BioAssay data set” (2004).

The target of assay [1] is Prothrombin (Homo sapiens, UniProt P00734). Description: Thrombin 1536 HTS Dose Response Confirmation. [Related pubchem assays: 1046 (Thrombin 1536 HTS; hits were confirmed in this assay)]. In kind it is functional.
Assay [2] deals with T1, Corticotropin-releasing factor receptor 2/Corticotropin-releasing factor-binding protein (Homo sapiens, UniProt P24387+Q13324).
T1 sequence (Q13324 whole entry): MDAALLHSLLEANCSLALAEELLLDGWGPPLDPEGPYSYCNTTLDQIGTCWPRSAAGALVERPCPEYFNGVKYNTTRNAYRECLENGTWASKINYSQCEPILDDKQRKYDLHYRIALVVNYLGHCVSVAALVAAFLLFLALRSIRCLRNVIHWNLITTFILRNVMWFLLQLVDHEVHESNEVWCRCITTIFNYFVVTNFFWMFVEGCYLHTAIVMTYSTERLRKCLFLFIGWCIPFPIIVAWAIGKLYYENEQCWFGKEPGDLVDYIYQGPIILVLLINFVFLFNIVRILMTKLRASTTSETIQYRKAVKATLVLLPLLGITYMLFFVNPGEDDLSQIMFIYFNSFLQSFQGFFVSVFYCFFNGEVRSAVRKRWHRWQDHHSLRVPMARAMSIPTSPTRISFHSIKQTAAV
T1 sequence (P24387 whole entry): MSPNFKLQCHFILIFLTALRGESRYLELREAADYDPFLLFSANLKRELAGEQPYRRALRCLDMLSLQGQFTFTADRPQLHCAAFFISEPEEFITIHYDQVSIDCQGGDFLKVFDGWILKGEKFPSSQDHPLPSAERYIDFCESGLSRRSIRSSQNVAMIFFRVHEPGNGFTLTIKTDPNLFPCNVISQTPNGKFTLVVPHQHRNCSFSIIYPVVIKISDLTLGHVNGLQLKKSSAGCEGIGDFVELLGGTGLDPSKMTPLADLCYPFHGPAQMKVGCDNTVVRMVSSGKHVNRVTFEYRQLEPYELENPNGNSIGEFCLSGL
Nature of the assay: activators of CRF receptor 2 with binding protein – uHTS hits, confirmation (AID 602473). In kind it is functional. The settings on record: read-out: EC50_Mean.

The target of assay [3] is T2, Voltage-gated N-type calcium channel alpha-1B subunit/Amyloid beta A4 precursor protein-binding family A member 1 (Homo sapiens, UniProt Q00975+Q02410). In kind it is protein assay.
In assay [4] the target is T2, Voltage-gated N-type calcium channel alpha-1B subunit/Amyloid beta A4 precursor protein-binding family A member 1. In kind it is protein assay. The source holds these as a separate data set.
For assay [5], the system named is Streptococcus sp. 'group A'. Nature of the assay: growth inhibition of control SK(-) GAS strain, dose response, counter-screen for streptokinase expression inhibitor project, luminescence, kanamycin, BacTiterGlo, confirmation (AID 1900). In kind it is functional, organism-based. Background: The purpose of a counterscreen is to sort out artefacts and off-target activity.

Assay [6] has as its target T3, Streptokinase A (Streptococcus pyogenes serotype M1, UniProt P10520).
T3 sequence (P10520 whole entry): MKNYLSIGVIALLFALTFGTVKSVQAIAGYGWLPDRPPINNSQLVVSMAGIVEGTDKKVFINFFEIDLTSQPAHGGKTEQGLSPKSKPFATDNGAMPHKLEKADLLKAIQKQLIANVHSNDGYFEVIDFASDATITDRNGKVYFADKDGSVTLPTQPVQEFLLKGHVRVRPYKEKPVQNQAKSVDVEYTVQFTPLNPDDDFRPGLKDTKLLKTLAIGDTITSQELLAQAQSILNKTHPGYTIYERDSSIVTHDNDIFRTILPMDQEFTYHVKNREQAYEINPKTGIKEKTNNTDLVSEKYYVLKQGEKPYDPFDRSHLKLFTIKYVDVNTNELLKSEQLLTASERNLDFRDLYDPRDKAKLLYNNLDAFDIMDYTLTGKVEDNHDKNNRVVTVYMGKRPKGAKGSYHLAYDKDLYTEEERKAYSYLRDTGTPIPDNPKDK
Nature of the assay: S. pyogenes streptokinase expression inhibitors, potency, dose response, plasminogen activation absorbance, OD405 (AID 1914).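 Also: secreted streptokinase activity via plasminogen activation per viability signal from cell pellet.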 In kind it is functional, Streptococcus pyogenes M1 GAS.

The subject of assay [7] is Streptococcus. Nature of the assay: Group A Streptococcus viability loss, dose response, counter-screen for streptokinase expression inhibitor project, luminescence, BacTiterGlo (AID 1915).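 Also: potency for reduction of bacterial viability or growth.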 In kind it is functional, organism-based.
Assay [8] in a line: THP-1 cell cytotoxicity, dose response, cytotoxicity control for non-replicating M. tuberculosis project (AID 489025). In kind it is functional.
Assay [9] can be described thus: Vero E6 cell cytotoxicity, dose response, cytotoxicity control for non-replicating M. tuberculosis project, secondary assay (AID 492998). In kind it is functional, VeroE6. The settings on record: Vero C1008.
Assay [10] can be described thus: cells. In kind it is functional.
Assay [11] has as its target Peroxisome proliferator-activated receptor gamma/Nuclear receptor coactivator 2 (Homo sapiens, UniProt P37231). In kind it is functional.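 Also: agonist potency for raising coactivator recruitment to the receptor.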
Assay [12] addresses Peroxisome proliferator-activated receptor gamma/Nuclear receptor coactivator 1 (Homo sapiens, UniProt P37231). In kind it is functional.
For assay [13], the target named is Peroxisome proliferator-activated receptor gamma/Nuclear receptor coactivator 3 (Homo sapiens, UniProt P37231). In kind it is functional.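 Also: agonist potency for raising coactivator recruitment to the receptor.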
Assay [14] concerns the target Induced myeloid leukemia cell differentiation protein Mcl-1 (Homo sapiens, UniProt Q07820). In kind it is functional.
Assay [15] addresses T4, Aminopeptidase N (Plasmodium falciparum FcB1/Columbia, UniProt O96935).
T4 sequence (O96935 whole entry): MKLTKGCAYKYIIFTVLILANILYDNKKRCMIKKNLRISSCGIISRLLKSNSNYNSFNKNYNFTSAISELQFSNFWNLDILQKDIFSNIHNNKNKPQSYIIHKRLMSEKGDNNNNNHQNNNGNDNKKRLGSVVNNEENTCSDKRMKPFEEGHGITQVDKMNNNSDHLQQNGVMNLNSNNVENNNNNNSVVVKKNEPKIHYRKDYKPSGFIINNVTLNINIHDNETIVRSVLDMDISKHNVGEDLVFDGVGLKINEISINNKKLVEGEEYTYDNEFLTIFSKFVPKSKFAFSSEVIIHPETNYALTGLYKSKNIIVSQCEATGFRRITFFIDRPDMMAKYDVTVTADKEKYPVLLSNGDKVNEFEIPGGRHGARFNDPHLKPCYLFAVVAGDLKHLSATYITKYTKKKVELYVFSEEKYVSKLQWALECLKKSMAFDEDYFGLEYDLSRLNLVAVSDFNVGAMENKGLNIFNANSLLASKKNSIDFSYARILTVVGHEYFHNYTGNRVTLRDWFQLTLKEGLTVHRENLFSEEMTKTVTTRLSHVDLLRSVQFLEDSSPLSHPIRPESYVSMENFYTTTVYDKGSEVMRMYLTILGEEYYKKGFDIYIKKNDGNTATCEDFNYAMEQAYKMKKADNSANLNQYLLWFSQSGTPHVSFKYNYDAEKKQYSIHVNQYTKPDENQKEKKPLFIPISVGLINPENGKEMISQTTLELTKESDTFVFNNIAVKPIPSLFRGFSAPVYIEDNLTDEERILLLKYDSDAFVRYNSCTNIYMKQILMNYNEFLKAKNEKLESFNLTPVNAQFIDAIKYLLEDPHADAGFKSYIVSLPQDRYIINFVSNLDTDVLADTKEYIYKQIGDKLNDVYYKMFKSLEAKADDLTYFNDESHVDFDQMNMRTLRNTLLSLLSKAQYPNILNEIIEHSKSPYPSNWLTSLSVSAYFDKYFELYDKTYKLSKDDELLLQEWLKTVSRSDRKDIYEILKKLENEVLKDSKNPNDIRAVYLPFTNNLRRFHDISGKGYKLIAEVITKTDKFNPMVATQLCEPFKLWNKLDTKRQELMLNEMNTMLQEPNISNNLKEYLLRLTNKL
Nature of the assay: P. falciparum M1AAP inhibitors, biochemical, fluorogenic H-Leu-NHMec substrate, 1536-well (AID 1445). On the set-up: species or system Plasmodium falciparum 3D7, 3D7.

The nature of assay [16]: Luminescence Cell-Based Dose Confirmation HTS to Identify Activators of 5'UTR Stem-Loop Driven Alpha-Synuclein mRNA Translation in H4 Neuroglioblastoma Cells. [Related pubchem assays: 1829 (Project Summary), 1814 (Primary HTS)]. In kind it is functional.
A short description of assay [17]: Luminescence Cell-Based Dose Response HTS to Identify Activators of Luciferase Translation or Activity in H4 […] Cells. [Related pubchem assays: 1829 (Project Summary), 1814 (Primary HTS)]. In kind it is functional.
Assay [18] concerns H4. Nature of the assay: Luminescence Cell-Based Dose Response HTS to Identify Activators of 5'UTR Stem-Loop Driven Prion Protein mRNA Translation in H4 Neuroglioblastoma Cells. [Related pubchem assays: 1829 (Project Summary), 1814 (Primary HTS)]. The conditions noted are these: Homo sapiens. In kind it is functional.
Assay [19] concerns the target T5, Microphthalmia-associated transcription factor (Homo sapiens, UniProt O75030).
T5 sequence (O75030 whole entry): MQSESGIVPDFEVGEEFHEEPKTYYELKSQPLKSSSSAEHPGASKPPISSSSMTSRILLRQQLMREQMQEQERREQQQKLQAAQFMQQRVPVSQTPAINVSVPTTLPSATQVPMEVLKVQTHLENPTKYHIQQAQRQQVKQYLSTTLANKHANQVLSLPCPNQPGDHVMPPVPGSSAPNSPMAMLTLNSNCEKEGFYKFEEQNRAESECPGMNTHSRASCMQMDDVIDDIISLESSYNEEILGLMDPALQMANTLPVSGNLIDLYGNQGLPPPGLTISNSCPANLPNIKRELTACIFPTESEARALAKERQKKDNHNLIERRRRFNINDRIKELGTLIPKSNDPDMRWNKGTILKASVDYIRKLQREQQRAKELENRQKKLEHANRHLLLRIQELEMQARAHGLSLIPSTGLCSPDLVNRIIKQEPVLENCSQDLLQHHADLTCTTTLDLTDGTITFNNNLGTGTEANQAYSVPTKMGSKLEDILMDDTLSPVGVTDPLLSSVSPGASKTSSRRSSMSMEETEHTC
Description: TRPM1 promoter luciferase signal decrease, dose response, MITF inhibitor project, cell-based, SK-MEL-5, cherry-picked, set 3 (AID 493073).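 Also: SK-MEL-5 melanoma cells with luciferase driven by the MITF target TRPM1 promoter.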 In kind it is functional.

A short description of assay [20]: Shn3 3'UTR reporter inhibitors, dose response, cell-based, Clone20 osteoblasts, firefly luciferase, cherry-picked (AID 624132).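 Also: firefly luciferase luminescence from reporter carrying the Shn3 3'UTR in osteoblasts.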 In kind it is functional.
Assay [21] in a line: HepG2 cell cytotoxicity, dose response, cytotoxicity control for Shn3 inhibitor project, CellTiter-Glo, cherry-picked (AID 624134). In kind it is functional, cell-based. In general terms: ATP-based viability assays read luminescence as a measure of living cells.
Assay [22] is described as follows: control 3'UTR Renilla luciferase suppression, dose response, counter-screen for Shn3 inhibitor project, cell-based, Clone20-Shn3RL, cherry-picked (AID 624133). In kind it is functional.

The source made the active and inactive calls.

Chain of Peroxisome proliferator-activated receptor gamma/Nuclear receptor coactivator 1 (P37231 whole entry): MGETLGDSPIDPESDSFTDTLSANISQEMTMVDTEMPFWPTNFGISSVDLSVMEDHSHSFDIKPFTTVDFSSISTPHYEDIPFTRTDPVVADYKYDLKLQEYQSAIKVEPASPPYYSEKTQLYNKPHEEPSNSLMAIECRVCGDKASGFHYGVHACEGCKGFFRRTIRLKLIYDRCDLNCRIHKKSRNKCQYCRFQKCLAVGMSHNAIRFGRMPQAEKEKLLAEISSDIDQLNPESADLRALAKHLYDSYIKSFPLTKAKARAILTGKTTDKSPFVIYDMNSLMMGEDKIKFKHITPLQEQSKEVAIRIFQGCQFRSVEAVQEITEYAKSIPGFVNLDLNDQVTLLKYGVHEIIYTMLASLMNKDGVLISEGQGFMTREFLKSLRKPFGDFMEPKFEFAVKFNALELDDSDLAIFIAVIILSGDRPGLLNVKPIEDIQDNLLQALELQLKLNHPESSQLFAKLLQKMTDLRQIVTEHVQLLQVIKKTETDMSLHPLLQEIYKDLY
Chain of Peroxisome proliferator-activated receptor gamma/Nuclear receptor coactivator 1 (Q15788 whole entry, further chain): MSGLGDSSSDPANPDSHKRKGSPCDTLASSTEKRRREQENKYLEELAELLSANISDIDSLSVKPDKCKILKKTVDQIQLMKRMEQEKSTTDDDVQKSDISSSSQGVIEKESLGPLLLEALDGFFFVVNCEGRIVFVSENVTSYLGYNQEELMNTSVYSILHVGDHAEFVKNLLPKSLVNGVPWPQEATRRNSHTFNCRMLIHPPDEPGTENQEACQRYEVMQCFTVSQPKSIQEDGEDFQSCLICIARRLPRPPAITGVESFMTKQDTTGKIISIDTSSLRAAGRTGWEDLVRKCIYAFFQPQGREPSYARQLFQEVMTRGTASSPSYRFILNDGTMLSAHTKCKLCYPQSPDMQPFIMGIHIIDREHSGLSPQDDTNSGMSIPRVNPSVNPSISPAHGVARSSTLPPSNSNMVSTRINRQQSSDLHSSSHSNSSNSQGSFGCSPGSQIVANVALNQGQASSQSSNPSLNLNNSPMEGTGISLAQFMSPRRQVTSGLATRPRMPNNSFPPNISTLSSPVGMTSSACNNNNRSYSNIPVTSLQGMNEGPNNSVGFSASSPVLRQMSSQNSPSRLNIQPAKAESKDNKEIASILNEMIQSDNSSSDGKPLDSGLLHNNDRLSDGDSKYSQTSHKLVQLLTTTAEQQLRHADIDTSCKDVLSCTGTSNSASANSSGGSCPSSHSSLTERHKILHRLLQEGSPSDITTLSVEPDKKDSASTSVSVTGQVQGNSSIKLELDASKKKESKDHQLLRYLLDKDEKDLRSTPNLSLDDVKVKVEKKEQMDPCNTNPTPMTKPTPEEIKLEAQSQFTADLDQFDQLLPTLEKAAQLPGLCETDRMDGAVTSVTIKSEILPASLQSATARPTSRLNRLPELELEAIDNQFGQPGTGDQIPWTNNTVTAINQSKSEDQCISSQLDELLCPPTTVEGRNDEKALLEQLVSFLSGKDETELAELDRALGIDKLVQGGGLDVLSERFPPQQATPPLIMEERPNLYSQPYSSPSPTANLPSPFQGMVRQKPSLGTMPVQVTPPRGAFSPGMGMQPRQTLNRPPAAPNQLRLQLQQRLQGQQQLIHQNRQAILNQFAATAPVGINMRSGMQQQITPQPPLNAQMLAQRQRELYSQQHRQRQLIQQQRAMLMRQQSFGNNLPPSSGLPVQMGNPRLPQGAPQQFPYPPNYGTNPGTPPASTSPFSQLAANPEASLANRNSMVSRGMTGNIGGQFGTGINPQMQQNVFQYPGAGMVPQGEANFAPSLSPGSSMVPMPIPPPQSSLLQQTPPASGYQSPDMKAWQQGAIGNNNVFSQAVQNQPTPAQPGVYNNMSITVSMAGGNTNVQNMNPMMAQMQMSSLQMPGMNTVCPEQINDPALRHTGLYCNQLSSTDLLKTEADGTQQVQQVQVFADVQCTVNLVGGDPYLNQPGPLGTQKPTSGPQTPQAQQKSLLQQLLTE
Chain of Peroxisome proliferator-activated receptor gamma/Nuclear receptor coactivator 3 (P37231 whole entry): as the sequence (P37231 whole entry) above
Chain of Peroxisome proliferator-activated receptor gamma/Nuclear receptor coactivator 3 (Q9Y6Q9 whole entry, further chain): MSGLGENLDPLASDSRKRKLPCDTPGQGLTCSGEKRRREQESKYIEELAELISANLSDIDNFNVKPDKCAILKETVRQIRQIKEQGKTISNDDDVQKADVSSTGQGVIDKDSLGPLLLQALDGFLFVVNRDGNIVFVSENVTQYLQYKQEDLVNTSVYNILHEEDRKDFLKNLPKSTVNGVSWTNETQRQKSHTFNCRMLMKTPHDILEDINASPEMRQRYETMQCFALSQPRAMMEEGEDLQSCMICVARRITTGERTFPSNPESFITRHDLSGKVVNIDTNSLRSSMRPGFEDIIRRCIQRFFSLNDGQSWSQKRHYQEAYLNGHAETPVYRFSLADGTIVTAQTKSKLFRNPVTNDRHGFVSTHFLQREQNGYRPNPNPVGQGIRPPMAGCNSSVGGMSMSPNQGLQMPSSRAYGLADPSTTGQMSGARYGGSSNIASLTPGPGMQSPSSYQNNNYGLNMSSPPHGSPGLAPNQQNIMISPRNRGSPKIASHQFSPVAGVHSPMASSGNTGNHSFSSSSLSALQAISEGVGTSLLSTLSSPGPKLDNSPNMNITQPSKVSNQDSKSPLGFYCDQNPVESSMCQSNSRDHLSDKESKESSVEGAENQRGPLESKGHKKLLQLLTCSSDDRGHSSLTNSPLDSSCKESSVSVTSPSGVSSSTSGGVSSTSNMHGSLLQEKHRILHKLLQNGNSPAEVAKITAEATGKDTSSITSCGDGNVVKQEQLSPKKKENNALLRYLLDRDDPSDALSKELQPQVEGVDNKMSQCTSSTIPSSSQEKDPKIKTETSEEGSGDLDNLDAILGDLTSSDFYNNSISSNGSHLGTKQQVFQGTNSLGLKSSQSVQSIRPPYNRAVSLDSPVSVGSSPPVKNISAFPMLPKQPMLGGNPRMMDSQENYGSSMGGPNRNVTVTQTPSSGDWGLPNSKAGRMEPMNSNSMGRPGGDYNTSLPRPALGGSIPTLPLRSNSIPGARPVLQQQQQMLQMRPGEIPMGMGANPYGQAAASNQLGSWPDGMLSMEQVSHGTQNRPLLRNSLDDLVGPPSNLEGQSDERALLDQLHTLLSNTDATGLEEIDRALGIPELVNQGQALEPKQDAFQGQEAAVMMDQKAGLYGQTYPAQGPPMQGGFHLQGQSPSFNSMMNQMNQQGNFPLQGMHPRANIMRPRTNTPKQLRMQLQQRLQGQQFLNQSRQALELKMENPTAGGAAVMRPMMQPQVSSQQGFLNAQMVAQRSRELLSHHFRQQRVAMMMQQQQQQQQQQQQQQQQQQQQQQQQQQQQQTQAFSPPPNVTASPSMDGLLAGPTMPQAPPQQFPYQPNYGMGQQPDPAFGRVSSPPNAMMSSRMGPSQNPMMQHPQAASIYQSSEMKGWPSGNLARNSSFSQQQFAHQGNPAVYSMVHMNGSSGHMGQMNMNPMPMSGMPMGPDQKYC
Chain of Induced myeloid leukemia cell differentiation protein Mcl-1 (Q07820 whole entry): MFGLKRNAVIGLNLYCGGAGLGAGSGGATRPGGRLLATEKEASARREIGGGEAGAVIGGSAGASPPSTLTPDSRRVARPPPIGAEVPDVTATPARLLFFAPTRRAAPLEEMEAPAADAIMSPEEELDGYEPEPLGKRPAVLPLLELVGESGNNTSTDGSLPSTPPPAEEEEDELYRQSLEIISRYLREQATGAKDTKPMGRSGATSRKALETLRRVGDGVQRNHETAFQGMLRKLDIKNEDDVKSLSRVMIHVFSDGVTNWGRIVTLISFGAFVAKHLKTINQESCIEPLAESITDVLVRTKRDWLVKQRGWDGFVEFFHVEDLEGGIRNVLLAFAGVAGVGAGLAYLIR

The IC50 is the point on the concentration scale where inhibition reaches its midpoint. For `Cc1ccc(C2C=C(c3ccccc3)Nc3nc(N4C(=O)CCC4=O)nn32)cc1` (stereo not given), in assay [1], the IC50 is 10.9 µM (active). Besides, the EC50 in assay [2] was > 53 µM (inactive).
For `O=C(NCc1ccco1)c1ccc(Cl)nc1`, the IC50 in assay [3] is 26.5 µM (active); in assay [4], > 50 µM (inactive).
What is called CC50 is the concentration at which the toxic effect on the cells reaches its halfway point. Regarding `O=C(Nc1nc2ccccc2[nH]1)c1cccc(Cl)c1`, the EC50 was 8.88 µM (active) in assay [5], > 150 µM (not active) in assay [6] and 69.4 µM (active) in assay [7]. Moreover, the half-maximal cytotoxic concentration (CC50) in [8] was > 40 µM (active); in assay [9], > 20 µM (active). The concentration for half-maximal inhibition (IC50) in assay [10] was 7.11 µM (active).
With `O=c1c2ccccc2nc(-c2ccccc2)n1CCCN1CCOCC1`, the EC50 in assay [11], in assay [12] and in [13] was > 79.4 µM (not active) throughout.
`CN1CCN(NS(=O)(=O)c2cccs2)CC1`: the results for the IC50 in assay [3] and in [4] were 51.3 µM (active) and > 50 µM (inactive), respectively.
`Cc1ccc(C(=O)Nc2ccc(N3CCCC3)cc2)cc1`: the EC50 in assay [11], in assay [12] and in assay [13] was > 79.4 µM (not active) throughout. The half-maximal inhibitory concentration (IC50) in assay [14] is recorded as 17.9 µM (not active).
Consider `C=CCn1c(Cc2cccs2)nnc1SCC(=O)c1ccc(F)cc1`, for which the EC50 in assay [11], in assay [12] and in assay [13] was > 79.4 µM (not active) each time.
`COc1ccc(C(=O)Nc2cccc(/C=C(\CCC(=O)O)c3nc4ccccc4s3)c2)cc1`: the IC50 in assay [15] is 21.8 µM (active); in assay [3] it was 4.28 µM (active); in [4], > 50 µM (inactive); in assay [14], 4.32 µM (active). The EC50 in assay [5] is 7.83 µM (active); in [6], > 50 µM (not active); in assay [7], 22.9 µM (active).
Take `O=C(CC(=O)c1cc(Cl)ccc1O)c1ccccc1`: the EC50 in assay [5] is 1.08 µM (active); in assay [6], > 150 µM (not active); in assay [7], 10.8 µM (active). The cytotoxic concentration (CC50) in [8] is 14.6 µM (active); in assay [9], 8.73 µM (active). The IC50 in assay [10] is 9.73 µM (active).
Consider `NC(=O)c1ccsc1NC(=O)CSc1nnc(C2CC2)n1Cc1ccccc1`, for which the IC50 in assay [1] was > 50 µM (not active).
The same measure, in the same setting: next, `O=C(CSc1nc2nncc-2c(O)[nH]1)N1CCCCC1`: > 50 µM (not active).
In the case of `Cn1c(=O)c(C(=O)NC2CCCCCCC2)c(O)c2ccccc21`, the EC50 in [11] was 69.1 µM (not active); in assay [12], > 79.4 µM (not active); in assay [16], 15.6 µM (active); in [17] it was 22.8 µM (active); in [13], > 79.4 µM (not active); in assay [18], > 120 µM (not active).
A word on the AC50: it is the midpoint of the concentration-response curve, whichever way the signal moves. For `Cn1cccc1C(=O)NC(=O)COC(=O)c1ccc(S(C)(=O)=O)c([N+](=O)[O-])c1`, the AC50 in [19] was 9.23 µM (active); in assay [20] it was 15.1 µM (active); in [21], 26 µM (active); in assay [22], 13.6 µM (active).
For the molecule `CCN(CC)c1ccc(/C=N/c2cc(C)ccc2C)c(O)c1`, the EC50 in assay [11], in [12] and in [13] was > 79.4 µM (not active) throughout.
